Values quoted from earlier work, collected in US8541371B2, “Treatment of conditions related to cecal ligation shock” (The Regents of The University of California, priority 2009, dated 2013).

Test system: shock
Conditions: shock patients, approved treatment

## drotrecogin alfa (activated) [XIGRIS]
  survival benefit: minor but confirmed survival benefit
